Like-named read-outs stand apart in the source and are kept apart here.
Tests used:
[1] = test system: BCRP; conditions: in vitro; cited from earlier work
[2] = Pharmacokinetics of allopurinol and febuxostat in healthy volunteers; type: in vivo, human; conditions: for variation of AUC0–24 between individual participants / variation of Cmax between individual participants: 300 mg allopurinol or 120 mg febuxostat once daily
[3] = molecular target: T1, BCRP (Homo sapiens, UniProt Q9UNQ0); type: biochemical
T1 sequence (Q9UNQ0 1-655): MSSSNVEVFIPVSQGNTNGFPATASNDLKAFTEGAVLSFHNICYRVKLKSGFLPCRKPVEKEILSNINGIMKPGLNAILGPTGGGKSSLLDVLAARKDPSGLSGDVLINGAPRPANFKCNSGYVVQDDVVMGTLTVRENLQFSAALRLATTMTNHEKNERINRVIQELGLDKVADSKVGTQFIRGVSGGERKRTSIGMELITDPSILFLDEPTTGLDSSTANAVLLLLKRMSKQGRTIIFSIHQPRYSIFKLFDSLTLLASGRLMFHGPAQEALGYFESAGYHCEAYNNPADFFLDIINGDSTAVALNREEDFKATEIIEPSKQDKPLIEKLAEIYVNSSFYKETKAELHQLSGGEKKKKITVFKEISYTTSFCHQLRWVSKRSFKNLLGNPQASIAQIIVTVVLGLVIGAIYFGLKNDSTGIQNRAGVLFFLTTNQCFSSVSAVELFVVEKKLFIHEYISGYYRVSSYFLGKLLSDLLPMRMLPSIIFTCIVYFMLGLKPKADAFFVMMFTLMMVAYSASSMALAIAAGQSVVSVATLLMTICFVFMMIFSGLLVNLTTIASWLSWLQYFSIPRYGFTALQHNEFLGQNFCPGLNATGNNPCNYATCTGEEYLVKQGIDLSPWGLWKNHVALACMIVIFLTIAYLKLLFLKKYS

[4] = type: in vivo, human; conditions: rosuvastatin 10 mg; for AUC(0-inf) / half-life: plasma; for AUC(0-inf): AUC0–∞; for half-life: t ½
[5] = cited from earlier work
[6] = test system: OATP2B1; conditions: in vitro; cited from earlier work
[7] = test system: OATP1B3; conditions: in vitro; cited from earlier work
[8] = test system: OATP1B1; conditions: in vitro; cited from earlier work
[9] = test system: breast cancer resistance protein (BCRP; encoded by ABCG2); conditions: in vitro; cited from earlier work
[10] = patients with established cardiovascular disease; cited from earlier work
[11] = test system: CYP2C19; conditions: in vitro; cited from earlier work
[12] = test system: CYP3A4; conditions: in vitro; cited from earlier work
[13] = test system: CYP2C8; conditions: in vitro; cited from earlier work
[14] = in vivo in humans; cited from earlier work
[15] = test system: CYP2C9; conditions: in vitro; cited from earlier work
[16] = test system: CYP2D6; conditions: in vitro; cited from earlier work
[17] = mice; cited from earlier work
[18] = in vivo in humans; cited from earlier work; remark: listed apart in the source
[19] = test system: CYP1A2; conditions: in vitro; cited from earlier work
[20] = cited from earlier work; remark: listed apart in the source
[21] = in vivo in humans; cited from earlier work; remark: listed apart in the source
[22] = 120 mg febuxostat once daily vs placebo
[23] = human, oral, allopurinol phase (300 mg once daily days 1–7), geometric mean (geometric CV)
[24] = human, oral, febuxostat phase (120 mg once daily days 4–7), geometric mean (geometric CV)

Oc1ncnc2[nH]ncc12 [allopurinol]
inhibition of BCRP [1]: have not inhibited
variation of AUC0–24 between individual participants [2]: 4.7 fold
variation of Cmax between individual participants [2]: 1.8 fold
AUC(0-t) ([2]; human, plasma, oral, 300 mg): 5700 ng·h/mL
Cmax ([2]; human, plasma, oral, 300 mg): 2000 ng/mL
IC50 [3]: > 200000 nM
effect on the pharmacokinetics of rosuvastatin ([4]; 300 mg allopurinol once daily for 7 days vs placebo): no statistically significant effect

CC1=NN(c2ccc(C)c(C)c2)C(=O)/C1=N\Nc1cccc(-c2cccc(C(=O)O)c2)c1O [eltrombopag]
increase of rosuvastatin AUC [5]: 1.6 fold
inhibition of OATP2B1 [6]: inhibits
inhibition of OATP1B3 [7]: inhibits
inhibition of OATP1B1 [8]: inhibits

Cc1nc(-c2ccc(OCC(C)C)c(C#N)c2)sc1C(=O)O [febuxostat]
inhibition of BCRP mediated transport of urate [9]: strongly inhibit
all-cause and cardiovascular mortality compared with allopurinol [10]: increases
variation of AUC0–24 between individual participants [2]: 3.0 fold
variation of Cmax between individual participants [2]: 5.0 fold
increase of AUC0–24 in individuals homozygous for SLCO1B1 c.521T>C ([2]; compared with the noncarriers and one heterozygote, data not shown, preliminary finding): 1.8 fold
AUC(0-t) ([2]; human, plasma, oral, 120 mg): 12300 ng·h/mL
Cmax ([2]; human, plasma, oral, 120 mg): 4300 ng/mL
half-life ([2]; human, plasma, oral, 120 mg): 360 min
inhibition of CYP2C19 [11]: does not inhibit
inhibition of CYP3A4 [12]: does not inhibit
IC50 [3]: 350 nM
inhibition of CYP2C8 [13]: weak inhibitor
effect on the pharmacokinetics of rosiglitazone [14]: no effect
inhibition of CYP2C9 [15]: does not inhibit
effect on Clrenal of rosuvastatin [4, 22]: remained unaffected
effect on t ½ of rosuvastatin [4, 22]: remained unaffected
inhibition of CYP2D6 [16]: weak inhibitor
exposure to the BCRP substrate sulfasalazine [17]: markedly increase
increase of the AUC of desipramine [18]: 12%
inhibition of CYP1A2 [19]: does not inhibit

O=c1[nH]c(=O)c2c[nH]nc2[nH]1 [oxypurinol]
inhibition of BCRP [1]: have not inhibited

O=C(O)C[C@H](O)C[C@H](O)/C=C/c1c(C2CC2)nc2ccccc2c1-c1ccc(F)cc1 [pitavastatin]
effect of the ABCG2 c.421C>A variant on AUC [20]: no significant effect

CC[C@H](C)C(=O)O[C@H]1C[C@H](O)C=C2C=C[C@H](C)[C@H](CC[C@@H](O)C[C@@H](O)CC(=O)O)[C@H]21 [pravastatin]
effect of the ABCG2 c.421C>A variant on AUC [20]: no significant effect

CC(C)c1nc(N(C)S(C)(=O)=O)nc(-c2ccc(F)cc2)c1/C=C/[C@@H](O)C[C@@H](O)CC(=O)O [rosuvastatin]
increase of AUC by homozygosity for SLCO1B1 c.521T>C [21]: 1.7–2.2 fold
increase of Cmax by homozygosity for SLCO1B1 c.521T>C [21]: 1.8–2.7 fold
CL renal ([4]; human, plasma and urine, oral, Clrenal, allopurinol phase (300 mg once daily days 1–7), geometric mean (geometric CV)): 225 mL/min
AUC(0-inf) [4, 23]: 53.5 ng·h/mL
AUC(0-inf) [4, 24]: 82.5 ng·h/mL
half-life [4, 23]: 654 min
half-life [4, 24]: 378 min
Ae, amount excreted into urine ([4]; allopurinol phase (300 mg once daily days 1–7), geometric mean (geometric CV)): 0.45 (101%) mg
AUC0–∞, allopurinol phase to placebo phase ratio (90% CI) ([4]; geometric mean ratio): 1.26 (0.98–1.61); P = 0.13
AUC0–∞, febuxostat phase to placebo phase ratio (90% CI) ([4]; geometric mean ratio): 1.93 (1.51–2.48); P = 0.001
Ae, allopurinol phase to placebo phase ratio (90% CI) ([4]; geometric mean ratio): 0.99 (0.69–1.43); P = 0.98
Ae, febuxostat phase to placebo phase ratio (90% CI) ([4]; geometric mean ratio): 1.76 (1.16–2.66); P = 0.03
Clrenal, allopurinol phase to placebo phase ratio (90% CI) ([4]; geometric mean ratio): 0.86 (0.65–1.14); P = 0.36
Clrenal, febuxostat phase to placebo phase ratio (90% CI) ([4]; geometric mean ratio): 0.82 (0.58–1.14); P = 0.30
Cmax, allopurinol phase to placebo phase ratio (90% CI) ([4]; geometric mean ratio): 1.22 (1.02–1.47); P = 0.08
Cmax, febuxostat phase to placebo phase ratio (90% CI) ([4]; geometric mean ratio): 2.13 (1.76–2.58); P = 5 × 10^−5
t ½, allopurinol phase to placebo phase ratio (90% CI) ([4]; geometric mean ratio): 1.72 (1.03–2.85); P = 0.08
t ½, febuxostat phase to placebo phase ratio (90% CI) ([4]; geometric mean ratio): 1.00 (0.75–1.33); P = 0.99

CCC(C)(C)C(=O)O[C@H]1C[C@@H](C)C=C2C=C[C@H](C)[C@H](CC[C@@H](O)C[C@@H](O)CC(=O)O)[C@H]21 [simvastatin acid]
effect of the ABCG2 c.421C>A variant on AUC [20]: no significant effect

Source: paper PMC7719384 (Clinical and Translational Science, 2020)
